These results are taken from patent US12642270B2, “Substituted thiophene carboxamides, thiophene carboxylic acids and derivatives thereof” (Bayer Aktiengesellschaft, priority 2019, dated 2026).

The chromatographic logP is lipophilicity estimated from chromatographic retention.

One data set in a line: Log P by HPLC on reversed phase columns (EEC directive 79/831 Annex V.A8). The class given is physicochemical. The note with it: LogP method [a]; compounds of formula (I), Table 1.1. The method, boiled down: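 Values come from retention times calibrated against alkan-2-ones (3–16 carbons) by linear interpolation, using reversed-phase LC-UV per EEC directive 79/831 Annex V.A8. Acetonitrile gradient 10–95% with 0.1% formic acid [a], 0.001 M ammonium acetate [b] or 0.1% phosphoric acid [c]; several values within one method separated by "+".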
As to `CCOC(=O)C1(CNC(=O)c2sc(Br)c(Br)c2F)CC1` [1.0445], the LogP was 3.86^[a]. On the same count and under the same terms, as for `NC(=O)C1(NC(=O)c2cc(I)c(I)s2)CC1` [1.0475], the figure is 1.87^[a]; as for `N#CCNC(=O)c1sc(C(F)F)c(Br)c1Br` [1.0521], 2.45^[a]. On the same count and under the same terms, as for `CCOC(=O)C1(NC(=O)c2sc(Br)c(C#N)c2Br)CC1` [1.0408], the figure is 2.71^[a]; as for `CCOC(=O)C1(NC(=O)c2sc(Br)c(C(F)F)c2Br)CCC1` [1.0506], 3.66^[a].

For the compound `COC(=O)CNC(=S)c1sc(Cl)c(Br)c1Cl` [1.0485], the LogP is 4.08^[a].

On to `CCOC(=O)C(Cc1ccccc1)NC(=O)c1cc(C#N)c(Br)s1` (stereo not shown) [1.0405], for which the LogP was 3.48^[a].

`CCOC(=O)C1(NC(=S)c2cc(Cl)c(Br)s2)CC1` [1.0479]: the LogP is 3.92^[a]. As to `CCOC(=O)CNC(=O)c1cc(F)c(Br)s1` [1.0467], the LogP is 2.28^[a].

The same data set, now with this note: method [a].
On to `CCOC(=O)C(CC(C)C)NC(=O)c1sc(Cl)c(Br)c1Br` (stereo not shown) [1.0215], for which the LogP is 5.18^[a]. Same read-out and setting: with `COC(=O)C(NC(=O)c1sc(Cl)c(Br)c1Cl)C1CC1` (stereo not shown) [1.0181] the figure was 3.91^[a]; with `CCOC(=O)C1(NC(=O)c2sc(Br)c(Br)c2F)CCC1` [1.0166], 3.78^[a]. Still for that read-out and setting: with `NC(=O)C1(NC(=O)c2sc(Br)c(Br)c2F)CC1` [1.0174] the figure was 1.94^[a]. For the compound `COC(=O)CNC(=O)c1sc(C#N)c(Br)c1Cl` [1.0605], the LogP is 2.24^[a].

For `COC(=O)[C@H](CSC(=O)N(C)C)NC(=O)c1sc(Br)c(Br)c1F` [1.0533], the LogP is 3.27^[a]. On to `CNC(=S)SC[C@H](NC(=O)c1sc(Br)c(Br)c1Cl)C(=O)OC` [1.0537], for which the LogP is 3.54^[a].

Turning to `N#CCNC(=O)c1sc(Br)c(Br)c1Cl` [1.0850], the LogP was 2.67^[a]. As to `Cc1c(C(=O)NC(C(=O)O)C2CC2)sc(Br)c1Cl` (stereo not shown) [1.0254], the LogP is 2.64^[a]. On the same count and under the same terms, with `COC(=O)CNC(=S)c1sc(Cl)c(Cl)c1Br` [1.0851] the figure was 4.09^[a]; with `CCOC(=O)[C@H](CO)NC(=O)c1sc(C#N)c(Br)c1C` [1.0846], 2.11^[a]. The same measure, in the same setting: with `CCOC(=O)C(NC(=O)c1sc(Cl)c(Br)c1C#N)C(C)C` (stereo not shown) [1.0609] the figure was 3.81^[a]. On the same count and under the same terms, with `CCOC(=O)C1(NC(=O)c2sc(C#N)c(Cl)c2C)CC1` [1.0258] the figure was 2.57^[a]; with `O=C(NC1(C(=O)OC2CCC2)CC1)c1sc(Br)c(Cl)c1F` [1.0592], 3.72^[a]. On to `CCOC(=O)C1(NC(=O)c2sc(Br)c(Br)c2Cl)CCC1` [1.0144], for which the LogP was 4.27^[a].

On to `COC(=O)C1(NC(=O)c2sc(Br)c(Br)c2Cl)CC(F)(F)C1` [1.0624], for which the LogP was 3.69^[a].

On to `CCOC(=O)CNC(=O)c1sc(Cl)c(Br)c1C#N` [1.0583], for which the LogP was 2.56^[a]. With `CCOC(=O)C(C)NC(=O)c1sc(Br)c(Cl)c1C` (stereo not shown) [1.0140], the LogP is 3.35^[a].

Regarding `N#Cc1c(C(=O)NC2(C(N)=O)CC2)sc(Cl)c1Cl` [1.0807], the LogP was 1.71^[a]. With `COC(=O)C(C)(C)NC(=O)c1sc(C#N)c(Cl)c1Cl` [1.0574], the LogP is 2.90^[a]. `Cc1c(C(=O)NC2(C(=O)OC3CCC3)CC2)sc(Cl)c1Br` [1.0590]: the LogP was 3.81^[a]. Take `COC(=O)C(CC(F)F)NC(=O)c1sc(Cl)c(Cl)c1I` (stereo not shown) [1.0192]: the LogP is 3.64^[a]. Same read-out and setting: as for `CC(NC(=O)c1sc(Br)c(Br)c1F)C(=O)O` (stereo not shown) [1.0233], the figure is 2.28^[a]; as for `CCOC(=O)CNC(=O)c1sc(Br)c(Cl)c1Cl` [1.0195], 3.28^[a]. On to `CCOC(=O)C(CO)NC(=O)c1sc(Cl)c(Cl)c1C#N` (stereo not shown) [1.0810], for which the LogP was 2.23^[a]. On the same count and under the same terms, as for `CCOC(=O)C(C#N)NC(=O)c1sc(Br)c(Br)c1F` (stereo not shown) [1.0257], the figure is 3.07^[a].

Regarding `CCOC(=O)CNC(=O)c1sc(Cl)c(Br)c1Cl` [1.0178], the LogP is 3.37^[a].

Take `CCOC(=O)CNC(=O)c1cc(Cl)c(F)s1` [1.0899]: the LogP is 2.23^[a]. Still for that read-out and setting: as for `COC(=O)C1(NC(=O)c2sc(Cl)c(Cl)c2Br)CC(C)(C)C1` [1.0612], the figure is 4.50^[a].

The same data set, now with this note: method [a]: LC-UV, acidic range, 0.1% formic acid in water and acetonitrile.
Take `O=C1CC(NC(=O)c2cc(Br)c(Cl)s2)CN1` (stereo not shown) [I.0225]: the LogP is 1.73^[a]. Same read-out and setting: as for `COC(=O)[C@H](Cc1ccccc1)NC(=O)[C@H](CC(=O)O)NC(=O)c1sc(Cl)c(Br)c1C` [I.0340], the figure is 3.13^[a]; as for `O=C(NC1CCOC1=O)c1sc(Br)c(Br)c1C(F)F` (stereo not shown) [I.1066], 2.46^[a]. Same read-out and setting: with `Cc1c(C(=O)O)sc(Br)c1C#N` [II.007] the figure was 2.03^[a]; with `N#Cc1sc(C(=O)NC2CCOC2=O)c(Cl)c1Cl` (stereo not shown) [I.0819], 2.05^[a].

For `Cc1c(C(=O)NC2CCOC2=O)sc(Cl)c1Br` (stereo not shown) [I.0820], the LogP was 2.48^[a]. On the same count and under the same terms, as for `O=C(O)c1sc(Br)c(Cl)c1Br` [II.070], the figure is 2.41^[a]; as for `O=C(NC1CCCCNC1=O)c1sc(Cl)c(Cl)c1Br` (stereo not shown) [I.0945], 2.99^[a]; as for `N#Cc1sc(C(=O)O)cc1Br` [II.036], 1.41^[a]. For the compound `O=C(N[C@H]1CCCNC1=O)c1sc(Br)c(Br)c1Cl` [I.0956], the LogP was 2.31^[a].

Still in this data set, the particulars now being: method [a]; compounds of formula (I), Table 1.1.
For the compound `CCOC(=O)C(CC(C)C)NC(=O)c1sc(Br)c(I)c1C` (stereo not shown) [1.0093], the LogP is 4.66^[a]. On the same count and under the same terms, as for `CCOC(=O)C1(NC(=O)c2sc(Br)c(Br)c2I)CCC1` [1.0082], the figure is 4.08^[a]; as for `CCOC(=O)C(Cc1ccc(O)cc1)NC(=O)c1sc(Br)c(Cl)c1C` (stereo not shown) [1.0130], 3.29^[a]; as for `CCOC(=O)C1(NC(=O)c2sc(Cl)c(Br)c2C)CC1` [1.0065], 3.17^[a]. On the same count and under the same terms, as for `CCOC(=O)C(CC(C)C)NC(=O)c1sc(Cl)c(Br)c1C` (stereo not shown) [1.0069], the figure is 4.58^[a].

Still in this data set, the particulars now being: method marked [a].
Regarding `COC(=O)C(NC(=O)c1sc(Br)c(Cl)c1C)C(=O)OC` [1.0273], the LogP is 3.04^[a]. For the compound `CCOC(=O)C1(NC(=S)c2sc(Cl)c(Cl)c2Br)CC1` [1.0323], the LogP is 4.51^[a]. Regarding `COC(=O)[C@H](CCCNC(=N)N)NC(=O)c1sc(Br)c(Br)c1F` [1.0278], the LogP was 1.66^[a].

For `CCOC(=O)C1(NC(=O)c2cc(Br)c(C(F)(F)F)s2)CC1` [1.0726], the LogP is 3.22^[a].

For the compound `CCOC(=O)C(Cc1ccccc1)NC(=O)c1sc(F)c(Br)c1C` (stereo not shown) [1.0321], the LogP is 4.23^[a]. As for `CCOC(=O)C(NC(=O)c1sc(Cl)c(Cl)c1Br)C(=O)OCC` [1.0775], the LogP is 4.30^[a]. Still for that read-out and setting: as for `CCOC(=O)C(Cc1ccccc1)NC(=O)c1sc(C#N)c(Cl)c1Br` (stereo not shown) [1.0671], the figure is 4.14^[a]; as for `CCOC(=O)C(CCSC)NC(=O)c1sc(C#N)c(Cl)c1C` (stereo not shown) [1.0305], 3.28^[a]. Still for that read-out and setting: as for `CCOC(=O)C1(NC(=O)c2sc(Br)c(C#N)c2Cl)CCC1` [1.0673], the figure is 3.30^[a]; as for `NC(=O)C1(NC(=O)c2sc(Cl)c(Cl)c2Br)CC1` [1.0786], 2.08^[a]. Still for that read-out and setting: as for `CNC(=O)CNC(=O)c1sc(Cl)c(Cl)c1Br` [1.0738], the figure is 2.08^[a]. Regarding `COC(=O)C(CC(F)F)NC(=O)c1sc(Cl)c(Cl)c1F` (stereo not shown) [1.0349], the LogP is 3.19^[a]. Still for that read-out and setting: with `CCOC(=O)CN(OC)C(=O)c1sc(C#N)c(Br)c1C` [1.0749] the figure was 3.23^[a]; with `CCOC(=O)C(C)NC(=O)c1sc(Br)c(Br)c1C(F)F` (stereo not shown) [1.0357], 3.35^[a].

Regarding `CCOC(=O)C1(NC(=O)c2sc(Cl)c(C#N)c2Br)CCC1` [1.0662], the LogP is 3.28^[a].

As for `CCOC(=O)C(CCSC)NC(=O)c1cc(Cl)c(C#N)s1` (stereo not shown) [1.0390], the LogP was 3.03^[a]. Still for that read-out and setting: with `CCOC(=O)C1(NC(=O)c2sc(F)c(Br)c2Br)CC1` [1.0706] the figure was 3.17^[a]. For the compound `COC(=O)C(CCSC)NC(=O)c1sc(Cl)c(Br)c1C` (stereo not shown) [1.0735], the LogP was 3.63^[a].

On to `O=C(NC(C(=O)O)C1CC1)c1cc(Cl)c(Br)s1` (stereo not shown) [1.0284], for which the LogP was 2.41^[a]. Still for that read-out and setting: as for `CCOC(=O)C(Cc1ccccc1)NC(=O)c1sc(F)c(Br)c1Br` (stereo not shown) [1.0711], the figure is 4.67^[a]; as for `CCOC(=O)C(NC(=O)c1sc(Cl)c(Br)c1C)C(=O)OCC` [1.0270], 3.87^[a]; as for `CCOC(=O)C(CCSC)NC(=O)c1sc(F)c(Br)c1C` (stereo not shown) [1.0320], 3.67^[a].

Staying with this data set, now noted: method marker [a] given with each value; Table 1.1, compounds of formula (I).
As for `Cc1c(C(=O)NCC(=O)OC2CCCC2)sc(C#N)c1Br` [1.0965], the LogP is 3.24^[a]. The same measure, in the same setting: as for `CCOC(=O)C1(NC(=O)c2sc(Br)c(Br)c2C(F)F)CSC1` [1.1052], the figure is 3.58^[a]. With `CC(C)(NC(=O)c1sc(Cl)c(Br)c1Cl)C(=O)O` [1.1022], the LogP was 2.80^[a]. Same read-out and setting: with `COC(=O)C(CCSC)NC(=O)c1sc(Cl)c(Cl)c1C(F)F` (stereo not shown) [1.1069] the figure was 3.52^[a]. Same read-out and setting: as for `COC(=O)[C@H](CCC(N)=O)NC(=O)c1sc(Br)c(Br)c1F` [1.1048], the figure is 2.05^[a]. Regarding `CCOC(=O)C1(NC(=O)c2sc(Cl)c(Br)c2Br)CSC1` [1.1060], the LogP is 3.91^[a]. Same read-out and setting: with `Cc1c(C(=O)NC(C#N)C(C)C)sc(C#N)c1Br` (stereo not shown) [1.1016] the figure was 3.03^[a]; with `COC(=O)C(C)(Cc1ccccc1)NC(=O)c1sc(Br)c(Br)c1F` (stereo not shown) [1.0954], 4.64^[a].

The data set is the same for the next values; noted with them: reversed phase HPLC columns, value in preparation example, method not marked.
In the case of `CCOC(=O)CNC(=O)c1sc(Br)c(Br)c1F` [I.0449, ethyl N-[(4,5-dibromo-3-fluoro-2-thienyl)carbonyl]glycinate], the chromatographic logP was determined as 2.97. On the same count and under the same terms, with `O=C(O)CNC(=O)c1sc(Br)c(Br)c1F` [I.0227, N-[(4,5-dibromo-3-fluoro-2-thienyl)carbonyl]glycine] the figure was 1.97.
